Laboratory results from article PMC9681850, “Structural basis of synthetic agonist activation of the nuclear receptor REV-ERB” (Nature Communications, 2022).
“And” between values parts separate entries of the source, which are not always exact repeats. Identical values can stand only once.

Tests used:
[1] = biological target: NCoR1-VP16 fusion protein (a fragment of the NCoR1 corepressor); assay: two-hybrid reporter assay (Gal4-FL REV-ERBα/NCoR1-VP16); conditions: HEK293 cells with Gal4UAS luciferase reporter; read at the highest dose shared with WT, log [STL1267] (µM) about 0.4; parent: est. 49; read off a plot
HepG2 cells = assay: cell viability by crystal violet staining; assay type: cell-based, human; conditions: for cell viability (Fig 2a source data): crystal violet, normalized to DMSO, single replicates
Procedure: (§1) Cellular viability was tested in two cell types, human hepatocarcinoma HepG2 cells and proliferating C2C12 mouse myoblast cells.
(§2) Data are presented as mean ± SEM. Source data are available as a Source Data file.
(§3) The human hepatocellular carcinoma cell line, HepG2 cells (ATCC HB-8065), were cultured in 10% FBS 1% L-Glu MEM at 37 °C in a humidified atmosphere of 5% CO2. Prior to RNA extraction cells were treated with either DMSO or REV-ERB agonist for 24 h. The C2C12 proliferating mouse myoblast cells (ATCC, CRL-1772) were cultured in 10% FBS DMEM at 37 °C in a humidified atmosphere of 5% CO2. Prior to RNA extraction cells were treated with either DMSO or REV-ERB agonist for 24 h. […]
(§4) […] Media was removed, and cells were incubated with 0.5% crystal violet solution for 20 min at room temperature with mild agitation. Cells were washed four times with tap water before being air drying overnight. Cells were incubated in methanol for 20 min with mild agitation. Absorbance was read at 570 nm, and readings were normalized to vehicle (DMSO) treated cells.

[2] = test system: proliferating C2C12 mouse myoblast cells; assay: cell viability by crystal violet staining; assay type: cell-based; conditions: for cell viability (Fig. 2b source data): crystal violet, normalized to DMSO, single replicates; for reduction in cellular viability: proliferating C2C12 cells
Procedure: as §1, §2, §3, §4

BMAL1 in HepG2 cells = assay: expression of BMAL1 by qPCR; assay type: cell-based, human; parameters: key: Bmal1 expression normalized to Ppia; conditions: 5 μM, 24 h, single replicates (n = 4)
Source text: We next determined whether STL1267 can regulate characterized REV-ERB modulated genes in cell lines expressing REV-ERB naturally. Five micromolar doses of both drugs were used in cell-based experiments from this point on. REV-ERB is an established component of the core molecular clock repressing the expression of core clock gene Bmal1[6],[27] as well as others[28],[29]. […] In skeletal muscle, REV-ERB agonism increases the expression of a wide variety of genes important in mitochondrial function.
The human hepatocellular carcinoma cell line, HepG2 cells (ATCC HB-8065), were cultured in 10% FBS 1% L-Glu MEM at 37 °C in a humidified atmosphere of 5% CO2. Prior to RNA extraction cells were treated with either DMSO or REV-ERB agonist for 24 h. The C2C12 proliferating mouse myoblast cells (ATCC, CRL-1772) were cultured in 10% FBS DMEM at 37 °C in a humidified atmosphere of 5% CO2. Prior to RNA extraction cells were treated with either DMSO or REV-ERB agonist for 24 h. Prior to crystal violet cytotoxicity assay, cells were treated with either DMSO or REV-ERB agonist for 48 h.
Mouse tissue was homogenized using a bullet blender. DNA/protein was removed by phase separation using BCP/chloroform. The supernatant (RNA containing fraction) was collected, and RNA was precipitated using isopropanol. The RNA pellets were washed with 75% ethanol and resolubilized in RNAse free water. […]

REV-ERB regulated genes = test system: REV-ERB regulated genes; parameters: method as in ref 17 re-assessed; ref 48; conditions: RNA-seq data of ref 17 re-assessed; cited from earlier work

Row | Compound | response (Normalized RLU) [1] | cell viability (Fig 2a source data) (HepG2 cells; HepG2, 1uM, listed as SR009) | cell viability (Fig 2a source data) (HepG2 cells; HepG2, 2uM, listed as SR909) | cell viability (Fig 2a source data) (HepG2 cells; HepG2, 5uM) | cell viability (Fig 2a source data) (HepG2 cells; HepG2, 10uM) | cell viability (Fig 2a source data) (HepG2 cells; HepG2, 20uM) | reduction in cell viability (HepG2 cells; HepG2 cells, 10 and 20 μM) | cell viability (Fig. 2b source data) ([2]; C2C12, 1 uM) | cell viability (Fig. 2b source data) ([2]; C2C12, 2 uM) | cell viability (Fig. 2b source data) ([2]; C2C12, 5 uM) | cell viability (Fig. 2b source data) ([2]; C2C12, 10 uM) | cell viability (Fig. 2b source data) ([2]; C2C12, 20 uM) | reduction in cellular viability ([2]; 10 μM) | reduction in cellular viability ([2]; 20 μM) | Bmal1 (Fig. 2c) expression (BMAL1 in HepG2 cells) | REV-ERB regulated genes still regulated in Rev-erbα/β DKO hepatocytes (REV-ERB regulated genes)
1 | full length human REV-ERBα fused to the GAL4 DNA-binding domain (wild type) (from UniProt P20393) F488A | 73 | – | – | – | – | – | – | – | – | – | – | – | – | – | – | –
2 | CCOC(=O)N1CCC(CN(Cc2ccc(Cl)cc2)Cc2ccc([N+](=O)[O-])s2)C1 (centres unmarked) [SR9009, reference compound] | – | 97.2789 and 85.5104 and 113.189 and 114.805 and 107.077 and 107.33 and 98.8951 and 92.8847 | 100.006 and 84.3488 and 101.774 and 112.583 and 88.7935 and 85.3589 and 86.1671 and 96.3697 | 99.2992 and 90.5108 and 87.6823 and 102.582 and 76.621 and 82.8335 and 95.5616 and 87.3793 | 106.875 and 80.1566 and 109.199 and 93.9453 and 73.8936 and 70.661 and 84.7528 and 82.682 | 91.723 and 73.742 and 95.107 and 95.2585 and 84.7528 and 75.1058 and 92.3796 and 105.158 | ~ 10% | 96.141 and 87.1558 and 95.0006 and 119.571 and 103.64 | 73.3671 and 83.0434 and 96.4175 and 95.0006 and 98.2145 and 106.301 and 112.141 and 107.994 | 97.5233 and 96.3829 and 104.02 and 104.331 and 114.111 and 109.239 and 109.791 and 104.884 | 81.4883 and 68.2525 and 56.4681 and 49.4183 and 62.032 and 78.1707 and 78.3435 and 86.2228 | 29.4436 and 32.6575 and 37.392 and 34.0399 and 33.6597 and 55.6387 and 64.9695 and 68.7363 | ~ 25% | ~ 50% | 0.6576 and 0.6833 and 0.6229 and 0.6990 | 39%
3 | full length human REV-ERBα fused to the GAL4 DNA-binding domain (wild type) (from UniProt P20393) F443A | 7 | – | – | – | – | – | – | – | – | – | – | – | – | – | – | –
